Patent US5530126A, “Process for the preparation of substituted 6-(pyrazol-3yl)-1,4-benzoxazin-3-ones” (Monsanto Company, priority 1994, dated 1996)

Columns and labels:
Type in all cases: in vivo
Annual bluegrass [1] = test: Post-emergence herbicide test; conditions: read-out: % plant inhibition (Anbg); for inhibition at 1120 g/ha: 1.12 kg/ha
Outline: (§1)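 Greenhouse-raised seedlings and perennial propagule shoots, aged 2–3 weeks, receive an atomized spray at 10 psig. The solution or suspension carries roughly 0.4% emulsifier and is applied at 200 gallons/acre; injury is rated as % inhibition after about 11 days.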

Barnyardgrass [2] = test: Post-emergence herbicide test; conditions: Echinochloa crus-galli, read-out: % plant inhibition (Bygr); for inhibition at 1120 g/ha: 1.12 kg/ha
Outline: as §1

Morningglory [3] = test: Post-emergence herbicide test; conditions: Ipomoea, read-out: % plant inhibition (Mogl); for inhibition at 1120 g/ha: 1.12 kg/ha
Outline: as §1

Indian Mustard [4] = test: Post-emergence herbicide test; conditions: Brassica juncea, read-out: % plant inhibition (Inmu); for inhibition at 1120 g/ha: 1.12 kg/ha
Outline: as §1

Seedling johnsongrass [5] = test: Post-emergence herbicide test; conditions: Sorghum halepense, read-out: % plant inhibition (Sejg); for inhibition at 1120 g/ha: 1.12 kg/ha
Outline: as §1

Wild buckwheat [6] = test: Post-emergence herbicide test; conditions: Fallopia convolvulus, read-out: % plant inhibition (Wibw); for inhibition at 1120 g/ha: 1.12 kg/ha
Outline: as §1

Downy Brome [7] = test: Post-emergence herbicide test; conditions: Bromus tectorum, read-out: % plant inhibition (Dobr); for inhibition at 1120 g/ha: 1.12 kg/ha
Outline: as §1

Yellow nutsedge [8] = test: Post-emergence herbicide test; conditions: Cyperus, read-out: % plant inhibition (Yens); for inhibition at 1120 g/ha: 1.12 kg/ha
Outline: as §1

Cocklebur [9] = test: Post-emergence herbicide test; conditions: Xanthium strumarium, read-out: % plant inhibition (Cobu); for inhibition at 1120 g/ha: 1.12 kg/ha
Outline: as §1

Velvetleaf [10] = test: Post-emergence herbicide test; conditions: Abutilon theophrasti, read-out: % plant inhibition (Vele); for inhibition at 1120 g/ha: 1.12 kg/ha
Outline: as §1

Annual bluegrass [11] = test: Pre-emergence herbicide test; conditions: read-out: % plant inhibition (Anbg); for inhibition at 1120 g/ha: 1.12 kg/ha
Outline: (§2)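 Known dose of active, dissolved or suspended in acetone or water, delivered onto seed bed prior to emergence and buried under untreated topsoil. Greenhouse incubation with watering from below. Percentage inhibition rated 10-14 days after seeding.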

Barnyardgrass [12] = test: Pre-emergence herbicide test; conditions: Echinochloa crus-galli, read-out: % plant inhibition (Bygr); for inhibition at 1120 g/ha: 1.12 kg/ha
Outline: as §2

Morningglory [13] = test: Pre-emergence herbicide test; conditions: Ipomoea, read-out: % plant inhibition (Mogl); for inhibition at 1120 g/ha: 1.12 kg/ha
Outline: as §2

Indian Mustard [14] = test: Pre-emergence herbicide test; conditions: Brassica juncea, read-out: % plant inhibition (Inmu); for inhibition at 1120 g/ha: 1.12 kg/ha
Outline: as §2

Seedling johnsongrass [15] = test: Pre-emergence herbicide test; conditions: Sorghum halepense, read-out: % plant inhibition (Sejg); for inhibition at 1120 g/ha: 1.12 kg/ha
Outline: as §2

Wild buckwheat [16] = test: Pre-emergence herbicide test; conditions: Fallopia convolvulus, read-out: % plant inhibition (Wibw); for inhibition at 1120 g/ha: 1.12 kg/ha
Outline: as §2

Downy Brome [17] = test: Pre-emergence herbicide test; conditions: Bromus tectorum, read-out: % plant inhibition (Dobr); for inhibition at 1120 g/ha: 1.12 kg/ha
Outline: as §2

Yellow nutsedge [18] = test: Pre-emergence herbicide test; conditions: Cyperus, read-out: % plant inhibition (Yens); for inhibition at 1120 g/ha: 1.12 kg/ha
Outline: as §2

Cocklebur [19] = test: Pre-emergence herbicide test; conditions: Xanthium strumarium, read-out: % plant inhibition (Cobu); for inhibition at 1120 g/ha: 1.12 kg/ha
Outline: as §2

Velvetleaf [20] = test: Pre-emergence herbicide test; conditions: Abutilon theophrasti, read-out: % plant inhibition (Vele); for inhibition at 1120 g/ha: 1.12 kg/ha
Outline: as §2

[21] = tested on: resistant broadleaf weeds such as pigweed, cocklebur, velvetleaf and hemp sesbania; test: Control of resistant broadleaf weeds in crops; conditions: in various crops such as corn, soybean and nuts and in forestry

SMILES | inhibition at 1120 g/ha (Annual bluegrass [1]) | inhibition at 1120 g/ha (Barnyardgrass [2]) | inhibition at 1120 g/ha (Morningglory [3]) | inhibition at 1120 g/ha (Indian Mustard [4]) | inhibition at 1120 g/ha (Seedling johnsongrass [5]) | inhibition at 1120 g/ha (Wild buckwheat [6]) | inhibition at 1120 g/ha (Downy Brome [7]) | inhibition at 1120 g/ha (Yellow nutsedge [8]) | inhibition at 1120 g/ha (Cocklebur [9]) | inhibition at 1120 g/ha (Velvetleaf [10]) | inhibition at 1120 g/ha (Annual bluegrass [11]) | inhibition at 1120 g/ha (Barnyardgrass [12]) | inhibition at 1120 g/ha (Morningglory [13]) | inhibition at 1120 g/ha (Indian Mustard [14]) | inhibition at 1120 g/ha (Seedling johnsongrass [15]) | inhibition at 1120 g/ha (Wild buckwheat [16]) | inhibition at 1120 g/ha (Downy Brome [17]) | inhibition at 1120 g/ha (Yellow nutsedge [18]) | inhibition at 1120 g/ha (Cocklebur [19]) | control of resistant broadleaf weeds [21] | further results
COC(=O)C(C)OC(=O)c1cc(-c2nn(C)c(C(F)(F)F)c2Cl)c(F)cc1Cl (stereo not drawn) [Compound 137, 2-Chloro-5-(4-chloro-1-methyl-5-(trifluoromethyl)-1H-pyrazol-3-yl)-4-fluorobenzoic acid, 2-methoxy-1-methyl-2-oxoethyl ester] | 100% | 100% | 100% | 100% | 100% | 100% | 100% | 20% | 100% | 100% | 70% | 70% | 100% | 100% | 50% | 90% | 80% | 20% | 100% | outstanding control | inhibition at 1120 g/ha (Velvetleaf [20]): 100%
C#CCOc1cc(-c2nn(C)c(C(F)(F)F)c2Cl)c(F)cc1Cl [Compound 261, 4-Chloro-3-(4-chloro-2-fluoro-5-propargyl-oxyphenyl)-1-methyl-5-(trifluoromethyl)-1H-pyrazole] |  |  |  |  |  |  |  |  |  |  |  |  |  |  |  |  |  |  |  | outstanding control | inhibition at 11210 g/ha (Annual bluegrass [1]; 11.21 kg/ha): 100%; inhibition at 11210 g/ha (Barnyardgrass [2]; 11.21 kg/ha): 100%; inhibition at 11210 g/ha (Morningglory [3]; 11.21 kg/ha): 100%; inhibition at 11210 g/ha (Indian Mustard [4]; 11.21 kg/ha): 100%; inhibition at 11210 g/ha (Seedling johnsongrass [5]; 11.21 kg/ha): 100%; inhibition at 11210 g/ha (Wild buckwheat [6]; 11.21 kg/ha): 100%; inhibition at 11210 g/ha (Downy Brome [7]; 11.21 kg/ha): 100%; inhibition at 11210 g/ha (Yellow nutsedge [8]; 11.21 kg/ha): 20%; inhibition at 11210 g/ha (Cocklebur [9]; 11.21 kg/ha): 100%; inhibition at 11210 g/ha (Velvetleaf [10]; 11.21 kg/ha): 100%; inhibition at 11210 g/ha (Annual bluegrass [11]; 11.21 kg/ha): 100%; inhibition at 11210 g/ha (Barnyardgrass [12]; 11.21 kg/ha): 100%; inhibition at 11210 g/ha (Morningglory [13]; 11.21 kg/ha): 100%; inhibition at 11210 g/ha (Indian Mustard [14]; 11.21 kg/ha): 100%; inhibition at 11210 g/ha (Seedling johnsongrass [15]; 11.21 kg/ha): 100%; inhibition at 11210 g/ha (Wild buckwheat [16]; 11.21 kg/ha): 100%; inhibition at 11210 g/ha (Downy Brome [17]; 11.21 kg/ha): 100%; inhibition at 11210 g/ha (Yellow nutsedge [18]; 11.21 kg/ha): 30%; inhibition at 11210 g/ha (Cocklebur [19]; 11.21 kg/ha): 100%; inhibition at 11210 g/ha (Velvetleaf [20]; 11.21 kg/ha): 100%
CC(C)OC(=O)COc1cc(-c2nn(C)c(C(F)(F)F)c2Cl)c(F)cc1Cl [Compound 282, (2-Chloro-5-(4-chloro-1-methyl-5-(trifluoromethyl)-1H-pyrazol-3-yl)-4-fluorophenoxy)acetic acid, 1-methylethyl ester] | 0% | 30% | 70% | 10% | 20% | 100% | 0% | 10% | 100% | 100% | 20% | 20% | 90% | 30% | 30% | 90% | 20% | 40% | 30% | outstanding control | inhibition at 1120 g/ha (Velvetleaf [20]): 100%
C#CCN1C(=O)COc2cc(F)c(-c3nn(C)c(C(F)(F)F)c3Cl)cc21 [Compound 446, 6-(4-Chloro-1-methyl-5-(trifluoromethyl)-1H-pyrazol-3-yl)-7-fluoro-4-(2-propynyl)-2H-1,4-benzoxazin-3-(4H)-one] | 100% | 100% | 100% | 100% | 90% | 100% | 100% | 40% | 100% | 100% | 100% | 80% | 100% | 100% | 80% | 100% | 90% | 60% | 100% | outstanding control | inhibition at 1120 g/ha (Velvetleaf [20]): 90%
